# Structures can show the parent of a compound that is named as a salt. ± gives the standard deviation of the averaged measurements.
# What was measured:
# [1] = tested on: 409B2 hiPSC (iCRISPR Cas9, FRMD7 editing); assay: MMEJ-attributed deletion frequency relative to solvent control (fold (ratio to mock)); higher = more MMEJ outcomes
# Method: (§1)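 Subset screen of 55 drugs tested at 5 concentrations around the effective screening dose, in 409B2 iCRISPR Cas9 hiPSCs editing FRMD7 with a ssDNA donor. Drugs were applied for 24 h. Viability was read by resazurin and editing outcomes by amplicon sequencing (HDR, NHEJ <2 bp microhomology, MMEJ ≥2 bp microhomology). Values are relative to solvent mock controls; two biological replicates.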
# [2] = tested on: 409B2 hiPSC (iCRISPR Cas9, FRMD7 editing); assay: cell survival relative to solvent control (fold (ratio to mock)); higher = more surviving cells
# Method: as §1
# [3] = tested on: 409B2 hiPSC (iCRISPR Cas9, FRMD7 editing); assay: HDR (precise edit) frequency relative to solvent control (fold (ratio to mock)); higher = more homology-directed repair outcomes
# Method: as §1
# [4] = tested on: 409B2 hiPSC (iCRISPR Cas9, FRMD7 editing); assay: NHEJ-attributed indel frequency relative to solvent control (fold (ratio to mock)); higher = more NHEJ outcomes
# Method: as §1
smiles,measurement,setting,value
CC(=O)O[C@]1(C(C)=O)CC[C@H]2[C@@H]3C=C(Cl)C4=CC(=O)[C@@H]5C[C@@H]5[C@]4(C)[C@H]3CC[C@@]21C [Cyproterone Acetate] (in DMSO),MMEJ-attributed deletion frequency,[1]; 20 nM,1.18 ± 0.11
same,MMEJ-attributed deletion frequency,[1]; 50 nM,0.986 ± 0.03
same,MMEJ-attributed deletion frequency,[1]; 100 nM,0.9921 ± 0.0047
same,MMEJ-attributed deletion frequency,[1]; 200 nM,0.915 ± 0.022
same,MMEJ-attributed deletion frequency,[1]; 500 nM,0.999 ± 0.017
same,cell survival,[2]; 20 nM,0.984
same,cell survival,[2]; 50 nM,1.23
same,cell survival,[2]; 100 nM,1.12
same,cell survival,[2]; 200 nM,1.09
same,cell survival,[2]; 500 nM,1.23
same,HDR,[3]; 20 nM,1.1 ± 0.048
same,HDR,[3]; 50 nM,1.119 ± 0.007
same,HDR,[3]; 100 nM,1.09 ± 0.054
same,HDR,[3]; 200 nM,1.03 ± 0.013
same,HDR,[3]; 500 nM,1.14 ± 0.058
same,NHEJ-attributed indel frequency,[4]; 20 nM,0.962 ± 0.045
same,NHEJ-attributed indel frequency,[4]; 50 nM,0.9767 ± 0.0039
same,NHEJ-attributed indel frequency,[4]; 100 nM,0.9929 ± 0.0094
same,NHEJ-attributed indel frequency,[4]; 200 nM,1.01 ± 0.014
same,NHEJ-attributed indel frequency,[4]; 500 nM,0.964 ± 0.042
CC(C)/N=c1\cc2n(-c3ccc(Cl)cc3)c3ccccc3nc-2cc1Nc1ccc(Cl)cc1 [Clofazimine] (in DMSO),MMEJ-attributed deletion frequency,[1]; 200 nM,1.07 ± 0.15
same,MMEJ-attributed deletion frequency,[1]; 500 nM,0.967 ± 0.077
same,MMEJ-attributed deletion frequency,[1]; 1000 nM,0.949 ± 0.022
same,MMEJ-attributed deletion frequency,[1]; 2000 nM,0.957 ± 0.097
same,MMEJ-attributed deletion frequency,[1]; 5000 nM,0.791 ± 0.14
same,cell survival,[2]; 200 nM,0.955
same,cell survival,[2]; 500 nM,1.06
same,cell survival,[2]; 1000 nM,0.752
same,cell survival,[2]; 2000 nM,0.597
same,cell survival,[2]; 5000 nM,0.252
same,HDR,[3]; 200 nM,0.942 ± 0.032
same,HDR,[3]; 500 nM,0.91 ± 0.019
same,HDR,[3]; 1000 nM,0.912 ± 0.042
same,HDR,[3]; 2000 nM,0.794 ± 0.029
same,HDR,[3]; 5000 nM,0.772 ± 0.058
same,NHEJ-attributed indel frequency,[4]; 200 nM,1.01 ± 0.022
same,NHEJ-attributed indel frequency,[4]; 500 nM,1.027 ± 0.004
same,NHEJ-attributed indel frequency,[4]; 1000 nM,0.999 ± 0.017
same,NHEJ-attributed indel frequency,[4]; 2000 nM,1.028 ± 0.0037
same,NHEJ-attributed indel frequency,[4]; 5000 nM,0.974 ± 0.014
Cc1ccc(C(=O)N(CCCN)[C@@H](c2nc3cc(Cl)ccc3c(=O)n2Cc2ccccc2)C(C)C)cc1 (in DMSO),MMEJ-attributed deletion frequency,[1]; 0.2 nM,1.01 ± 0.086
same,MMEJ-attributed deletion frequency,[1]; 0.5 nM,0.901 ± 0.032
same,MMEJ-attributed deletion frequency,[1]; 1 nM,1.01 ± 0.076
same,MMEJ-attributed deletion frequency,[1]; 2 nM,0.864 ± 0.08
same,MMEJ-attributed deletion frequency,[1]; 5 nM,0.961 ± 0.13
same,cell survival,[2]; 0.2 nM,1.07
same,cell survival,[2]; 0.5 nM,1.34
same,cell survival,[2]; 1 nM,1.15
same,cell survival,[2]; 2 nM,1.2
same,cell survival,[2]; 5 nM,0.682
same,HDR,[3]; 0.2 nM,1.1 ± 0.075
same,HDR,[3]; 0.5 nM,1.0454 ± 2.1e-05
same,HDR,[3]; 1 nM,1.08 ± 0.032
same,HDR,[3]; 2 nM,1.03 ± 0.032
same,HDR,[3]; 5 nM,1.18 ± 0.095
same,NHEJ-attributed indel frequency,[4]; 0.2 nM,0.957 ± 0.046
same,NHEJ-attributed indel frequency,[4]; 0.5 nM,0.989 ± 0.019
same,NHEJ-attributed indel frequency,[4]; 1 nM,0.9925 ± 0.0038
same,NHEJ-attributed indel frequency,[4]; 2 nM,1.012 ± 0.0086
same,NHEJ-attributed indel frequency,[4]; 5 nM,1.07 ± 0.041
Nc1ccn(C[C@@H](CO)OCP(=O)(O)O)c(=O)n1 [Cidofovir] (in H2O),MMEJ-attributed deletion frequency,[1]; 2000 nM,0.789 ± 0.08
same,MMEJ-attributed deletion frequency,[1]; 5000 nM,0.881 ± 0.029
same,MMEJ-attributed deletion frequency,[1]; 10000 nM,0.924 ± 0.35
same,MMEJ-attributed deletion frequency,[1]; 20000 nM,0.727 ± 0.12
same,MMEJ-attributed deletion frequency,[1]; 50000 nM,0.968
same,cell survival,[2]; 2000 nM,0.624
same,cell survival,[2]; 5000 nM,0.548
same,cell survival,[2]; 10000 nM,0.333
same,cell survival,[2]; 20000 nM,0.167
same,cell survival,[2]; 50000 nM,0.863
same,HDR,[3]; 2000 nM,1.06 ± 0.083
same,HDR,[3]; 5000 nM,0.9 ± 0.055
same,HDR,[3]; 10000 nM,0.85 ± 0.081
same,HDR,[3]; 20000 nM,0.574 ± 0.012
same,HDR,[3]; 50000 nM,1.01
same,NHEJ-attributed indel frequency,[4]; 2000 nM,0.843 ± 0.058
same,NHEJ-attributed indel frequency,[4]; 5000 nM,0.835 ± 0.019
same,NHEJ-attributed indel frequency,[4]; 10000 nM,0.862 ± 0.049
same,NHEJ-attributed indel frequency,[4]; 20000 nM,0.736 ± 0.051
same,NHEJ-attributed indel frequency,[4]; 50000 nM,0.988
Nc1ccn([C@@H]2O[C@H](CO)[C@@H](O)[C@@H]2O)c(=O)n1 [Cytarabine hydrochloride] (in DMSO),MMEJ-attributed deletion frequency,[1]; 20 nM,0.911 ± 0.12
same,MMEJ-attributed deletion frequency,[1]; 50 nM,0.897 ± 0.049
same,MMEJ-attributed deletion frequency,[1]; 100 nM,1.1 ± 0.021
same,MMEJ-attributed deletion frequency,[1]; 200 nM,1.08 ± 0.13
same,MMEJ-attributed deletion frequency,[1]; 500 nM,1.04 ± 0.18
same,cell survival,[2]; 20 nM,1.01
same,cell survival,[2]; 50 nM,0.968
same,cell survival,[2]; 100 nM,0.672
same,cell survival,[2]; 200 nM,0.467
same,cell survival,[2]; 500 nM,0.161
same,HDR,[3]; 20 nM,0.71 ± 0.068
same,HDR,[3]; 50 nM,0.699 ± 0.1
same,HDR,[3]; 100 nM,0.625 ± 0.018
same,HDR,[3]; 200 nM,0.652 ± 0.11
same,HDR,[3]; 500 nM,0.554 ± 0.099
same,NHEJ-attributed indel frequency,[4]; 20 nM,1.02 ± 0.026
same,NHEJ-attributed indel frequency,[4]; 50 nM,1.05 ± 0.022
same,NHEJ-attributed indel frequency,[4]; 100 nM,1.03 ± 0.0015
same,NHEJ-attributed indel frequency,[4]; 200 nM,1.01 ± 0.039
same,NHEJ-attributed indel frequency,[4]; 500 nM,1.04 ± 0.04
C[C@@H]1O[C@@H](O[C@H]2C[C@@H](O)[C@]3(CO)[C@H]4[C@H](O)C[C@]5(C)[C@@H](C6=CC(=O)OC6)CC[C@]5(O)[C@@H]4CC[C@]3(O)C2)[C@H](O)[C@H](O)[C@H]1O [Ouabain Octahydrate] (in H2O),MMEJ-attributed deletion frequency,[1]; 2000 nM,3.06 ± 0.43
same,MMEJ-attributed deletion frequency,[1]; 5000 nM,2.82 ± 1.1
same,MMEJ-attributed deletion frequency,[1]; 10000 nM,2.58 ± 0.43
same,MMEJ-attributed deletion frequency,[1]; 20000 nM,2.31 ± 0.4
same,MMEJ-attributed deletion frequency,[1]; 50000 nM,1.87 ± 1.1
same,cell survival,[2]; 2000 nM,0.0512
same,cell survival,[2]; 5000 nM,0.0777
same,cell survival,[2]; 10000 nM,0.0589
same,cell survival,[2]; 20000 nM,0.0655
same,cell survival,[2]; 50000 nM,0.585
same,HDR,[3]; 2000 nM,0.0693 ± 0.021
same,HDR,[3]; 5000 nM,0.0683 ± 0.03
same,HDR,[3]; 10000 nM,0.0814 ± 0.045
same,HDR,[3]; 20000 nM,0.068 ± 0.013
same,HDR,[3]; 50000 nM,0.505 ± 0.64
same,NHEJ-attributed indel frequency,[4]; 2000 nM,0.523 ± 0.026
same,NHEJ-attributed indel frequency,[4]; 5000 nM,0.539 ± 0.1
same,NHEJ-attributed indel frequency,[4]; 10000 nM,0.435 ± 0.13
same,NHEJ-attributed indel frequency,[4]; 20000 nM,0.392 ± 0.093
same,NHEJ-attributed indel frequency,[4]; 50000 nM,0.736 ± 0.38
